Experimental data from patent publication US20250332173A1, “COMPOUNDS AND METHODS FOR MODULATING NUCLEIC ACID SPLICING” (REMIX THERAPEUTICS INC., priority 2021, published 2025).
Like-named read-outs stand apart in the source and are kept apart here.

How the values were obtained:
Type in all cases: cell-based, human
SMN2 mRNA = assay: RT-qPCR splicing assay, SMN2 canonical junction (CJ) mRNA; settings: Homo sapiens; canonical junction qPCR panel, Table 5; read-out: SMN2 (decrease in CJ mRNA levels, IC50)
Outline: (§1)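 K562/A673 cells, 11-pt 3-fold compound titration from 10 uM final, DMSO ≤0.25%, 24 h 37 °C 5% CO2; lyse (DNase I or Igepal/Tris buffer pH 7.4); RT-qPCR for CJ isoform vs housekeeping gene (GAPDH/GUSB/PPIA).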

Target C = assay: RT-qPCR splicing assay panel, Target C canonical junction (CJ) mRNA; settings: Homo sapiens; canonical junction qPCR panel, Table 5; read-out: Target C (decrease in CJ mRNA levels, IC50)
Outline: as §1

HTT = assay: HiBiT protein abundance assay, HTT HiBiT K562 cell line; settings: 24 hours, top dose 10 μM
Outline: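 K562 knock-in lines with endogenous HiBiT-tagged target, 10,000 cells/well in IMDM + FBS, treated 24 h at 37° C with 10-point 3-fold dilutions (top 10 μM final; DMSO ≤0.25%). Lytic Nano-Glo HiBiT luminescence normalized to untagged K562 baseline and DMSO controls; IC50 = concentration giving 50% abundance via four-parameter fit.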

[1] = HiBiT K562 cell line, read-out: Effect on protein abundance, HTT (IC50 category)
[2] = HiBiT lytic detection, modified K562 cells, read-out: Effect on protein abundance, HTT (IC50)

Structure (SMILES)	IC50 (SMN2 mRNA) [µM]	IC50 (Target C) [µM]	IC50 (HTT; [1]) [µM]	IC50 (HTT; [2]) [µM]
COc1c(-c2ccc3c(=O)n(C4CCNCC4)ccc3n2)cc2cn(C)nc2c1C [Compound 1243]	> 10	> 10	> 10	–
Cc1cn2nc(-c3ccc4c(=O)n(C5CCNCC5)ncc4n3)cc(C)c2n1 [Compound 1247]	< 0.1	0.1 to 1	–	< 0.1
Cn1cc2nc(-c3ccc4c(=O)n(C5CCNCC5)ccc4n3)c(O)cc2n1 [Compound 1296]	< 0.1	0.1 to 1	< 0.1	–
Cc1cn2cc(-c3ccc4c(=O)n(C5CCNCC5)ccc4n3)cc(C#N)c2n1 [Compound 1297]	< 0.1	0.1 to 1	0.1 to 1	–
Cc1cn2cc(-c3ccc4c(=O)n(C5CCNC5)ccc4n3)cc(F)c2n1 (stereo not drawn) [Compound 1299]	0.1 to 1	> 10	> 10	–
Cc1c(O)c(-c2ncc3c(=O)n(C4CCC(N)CC4)ccc3n2)cc2cn(C)nc12 (stereo not drawn) [Compound 1300, 6-((1s,4s)-4-aminocyclohexyl)-2-(6-hydroxy-2,7-dimethyl-2H-indazol-5-yl)pyrido[4,3-d]pyrimidin-5(6H)-one]	< 0.1	1 to 10	0.1 to 1	–
Cc1cn2cc(-c3ncc4c(=O)n(C5CCNCC5)ccc4n3)cc(C#N)c2n1 [Compound 1301]	< 0.1	1 to 10	0.1 to 1	–
Cc1c(O)c(-c2ncc3c(=O)n(C4CCN(C)CC4)ccc3n2)cc2cn(C)nc12 [Compound 1304]	< 0.1	1 to 10	0.1 to 1	–
Cn1cc2cc(-c3ccc4c(=O)n(C5CCNC6(CC6)C5)ncc4n3)c(O)cc2n1 (stereo not drawn) [Compound 1306]	< 0.1	0.1 to 1	–	0.1 to 1
CN1CCC(n2ncc3nc(-c4cc5cn(C)nc5cc4O)ccc3c2=O)CC1 [Compound 1307]	0.1 to 1	1 to 10	–	1 to 10
CCN1CCC(n2ncc3nc(-c4cc(C)c5nc(C)cn5n4)ccc3c2=O)CC1 [Compound 1308]	< 0.1	0.1 to 1	–	< 0.1
Cc1c(O)c(-c2ncc3c(=O)n([C@@H]4C[C@H]5CC[C@@H](C4)N5)ccc3n2)cc2cn(C)nc12 [Compound 1429, 6-[(1S,5R)-8-azabicyclo[3.2.1]octan-3-yl]-2-(6-hydroxy-2,7-dimethyl-indazol-5-yl)pyrido[4,3-d]pyrimidin-5-one]	< 0.1	1 to 10	0.1 to 1	–
Cc1c(O)c(-c2ncc3c(=O)n([C@H]4C[C@H](N)C4)ccc3n2)cc2cn(C)nc12 [Compound 1432, 6-((1r,3r)-3-aminocyclobutyl)-2-(6-hydroxy-2,7-dimethyl-2H-indazol-5-yl)pyrido[4,3-d]pyrimidin-5(6H)-one]	< 0.1	1 to 10	1 to 10	–
Cc1c(O)c(-c2ncc3c(=O)n([C@@H]4CCN[C@H](C)C4)ccc3n2)cc2cn(C)nc12 [Compound 1434, 2-(6-hydroxy-2,7-dimethyl-indazol-5-yl)-6-(2-methyl-4-piperidyl)pyrido[4,3-d]pyrimidin-5-one]	< 0.1	1 to 10	0.1 to 1	–
Cc1cn2nc(-c3ccc4c(=O)n([C@@H]5CCNC5)ccc4n3)cc(C)c2n1 [Compound 1438, 2-(2,8-dimethylimidazo[1,2-b]pyridazin-6-yl)-6-[(3R)-pyrrolidin-3-yl]-1,6-naphthyridin-5-one]	< 0.1	1 to 10	1 to 10	–
Cc1c(O)c(-c2ncc3c(=O)n([C@@H]4C[C@H]5C[C@@H]4CN5)ccc3n2)cc2cn(C)nc12 [Compound 1445, 6-[(1R,4R,5R)-2-azabicyclo[2.2.1]heptan-5-yl]-2(6-hydroxy-2,7-dimethyl-indazol-5-yl)pyrido[4,3-d]pyrimidin-5-one]	0.1 to 1	> 10	> 10	–

Further lines, results first:

IC50 (SMN2 mRNA) [µM]	IC50 (Target C) [µM]	IC50 (HTT; [1]) [µM]	IC50 (HTT; [2]) [µM]	Structure (SMILES)
< 0.1	1 to 10	0.1 to 1	–	Cn1cc2cc(-c3ccc4c(=O)n([C@@H]5CCNC6(CC6)C5)ccc4n3)c(O)cc2n1 [Compound 1246]
< 0.1	0.1 to 1	< 0.1	–	Cc1c(O)c(-c2ccc3c(=O)n(C4CCNCC4)cc(C)c3n2)cc2cn(C)nc12 [Compound 1284]
< 0.1	< 0.1	< 0.1	–	Cc1cn(C2CCNCC2)c(=O)c2ccc(-c3cc4cn(C)nc4c(F)c3O)nc12 [Compound 1285]
1 to 10	> 10	> 10	–	Cc1cn2cc(-c3ccc4c(=O)n(C5CCNC5)ccc4n3)c(O)c(C)c2n1 (stereo not drawn) [Compound 1302]
< 0.1	0.1 to 1	0.1 to 1	–	Cc1c(O)c(-c2ncc3c(=O)n(N4CCNCC4)ccc3n2)cc2cn(C)nc12 [Compound 1303]
< 0.1	> 10	> 10	–	Cc1c(O)c(-c2ncc3c(=O)n(C4CNC4)ccc3n2)cc2cn(C)nc12 [Compound 1305, 6-(azetidin-3-yl)-2-(6-hydroxy-2,7-dimethyl-indazol-5-yl)pyrido[4,3-d]pyrimidin-5-one]
< 0.1	0.1 to 1	–	0.1 to 1	Cc1cn2nc(-c3ccc4c(=O)n(C5CCN(CCF)CC5)ncc4n3)cc(C)c2n1 [Compound 1309]
0.1 to 1	1 to 10	–	1 to 10	CCN1CCC(n2ncc3nc(-c4cc5cn(C)nc5cc4O)ccc3c2=O)CC1 [Compound 1310]
< 0.1	0.1 to 1	–	0.1 to 1	Cc1cn2nc(-c3ccc4c(=O)n(C5CCN(C)CC5)ncc4n3)cc(C)c2n1 [Compound 1311]
< 0.1	1 to 10	1 to 10	–	Cc1c(O)c(-c2ncc3c(=O)n(C45CCC(N)(CC4)C5)ccc3n2)cc2cn(C)nc12 [Compound 1428]
0.1 to 1	1 to 10	1 to 10	–	Cc1c(O)c(-c2ncc3c(=O)n([C@H]4C[C@@H](N)C4)ccc3n2)cc2cn(C)nc12 [Compound 1431, 6-((1s,3s)-3-aminocyclobutyl)-2-(6-hydroxy-2,7-dimethyl-2H-indazol-5-yl)pyrido[4,3-d]pyrimidin-5(6H)-one]
< 0.1	1 to 10	0.1 to 1	–	Cc1c(O)c(-c2ncc3c(=O)n([C@H]4CCNC(C)(C)C4)ccc3n2)cc2cn(C)nc12 [Compound 1436]
< 0.1	1 to 10	1 to 10	–	Cc1cn2nc(-c3ccc4c(=O)n([C@H]5CCNC5)ccc4n3)cc(C)c2n1 [Compound 1437, 2-(2,8-dimethylimidazo[1,2-b]pyridazin-6-yl)-6-[(3S)-pyrrolidin-3-yl]-1,6-aphthyridin-5-one]
< 0.1	0.1 to 1	< 0.1	–	Cc1c(O)c(-c2ncc3c(=O)n([C@H]4CCN[C@@H](C)C4)ccc3n2)cc2cn(C)nc12 [Compound 1441, 2-(6-hydroxy-2,7-dimethyl-indazol-5-yl)-6-(2-methyl-4-piperidyl)pyrido[4,3-d]pyrimidin-5-one]
< 0.1	1 to 10	0.1 to 1	–	Cc1c(O)c(-c2ncc3c(=O)n(C4CCNC(C)(C)C4)ccc3n2)cc2cn(C)nc12 (stereo not drawn) [Compound 1442]
< 0.1	1 to 10	0.1 to 1	–	Cc1c(O)c(-c2ccc3c(=O)n(C4CC(C)NC(C)C4)ccc3n2)cc2cn(C)nc12 (stereo not drawn) [Compound 1447, 6-(2,6-dimethyl-4-piperidyl)-2-(6-hydroxy-2,7-dimethyl-indazol-5-yl)-1,6-naphthyridin-5-one]
